Drawing on patent US20250275991A1, “ORAL COMPLEMENT FACTOR D INHIBITORS” (BioCryst Pharmaceuticals, Inc, priority 2019, published 2025), this text covers IC50 for 25 compounds.

Where only a bound is given, the exact number is not on record here.

The assay deals with Factor D (Homo sapiens, UniProt P00746). The assay can be described thus: Factor D esterolytic assay. The assay is classed as biochemical. To be noted: substrate Z-Lys-SBzl 1.29 mM, 100 mM HEPES, 500 mM NaCl, pH 7.5, 10% DMSO, tested a minimum of three times. Here is the method: The IC50 value of a compound (i.e., the concentration of the compound that inhibits 50% of the enzymatic activity) was calculated according to the procedure reported in U.S. Pat. No. 6,653,340 B1, e.g., column 74 (incorporated by reference).
Sequence of Factor D (P00746 26-253): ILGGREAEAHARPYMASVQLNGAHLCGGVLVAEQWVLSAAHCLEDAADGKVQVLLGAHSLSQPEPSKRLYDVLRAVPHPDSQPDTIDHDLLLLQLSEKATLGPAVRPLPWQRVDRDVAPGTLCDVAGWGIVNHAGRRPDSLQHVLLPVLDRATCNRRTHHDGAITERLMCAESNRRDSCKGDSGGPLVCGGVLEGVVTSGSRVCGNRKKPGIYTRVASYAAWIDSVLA
Specifically, the compounds were dissolved in a stock solution of DMSO at 10.0 or 100 mM. A portion of this stock solution was added to assay buffer in a final volume of 50 μL. Controls included buffer alone and enzyme solutions to which DMSO was added. Substrate was added to the reaction wells immediately or after incubation at room temperature. The reaction rates were measured spectrophotometrically by the generation of product at 405 nm for 600 sec. Background absorbance at 690 nm was measured and subtracted from the absorbance at 405 nm for each well.
The reaction rate for enzyme alone was compared to the rate of enzyme in the presence of inhibitor and the percent inhibition was calculated as shown below: […]
An established esterolytic assay for the measurement of Factor D activity and inhibition of Factor D activity was used (Kam, C. M.; McRae, B. J.; Harper, J. W.; Niemann, M. A.; Volanakis, J. E.; Powers, J. C. Human complement proteins D, C2, and B Active site mapping with peptide thioester substrates. J Biol. Chem. 1987, 262, 3444-3451). For this assay Z-Lys-SBzl, 1.29 mM (Kim, S.; Narayana, S. V. L; Volanakis, J. E. Mutational analysis of the substrate binding site of human complement Factor D. Biochemistry. 1994, 33, 14393-14399.) was used as the substrate for Factor D ([…]). Hydrolysis of this compound by Factor D liberated a free sulfhydryl group which is then reacted with 5,5′-dithiobis(2nitrobenzoic acid) producing an intense yellow color (Habeeb, A. F. S. A. Reaction of protein sulfhydryl groups with Ellman's Reagent. Methods in Enzymol. 1976, 25, 457-464). The assays were performed in 96 well microtiter plates and rates of hydrolysis were monitored at 405 nm on a Biotek Synergy H1 plate reader. Hydrolysis rates were reported as change in mOD/min. The assay was conducted in 100 mM HEPES, 500 mM NaCl, pH 7.5 containing 10% DMSO in a final volume of 50 μL per well.
An IC50, a compound concentration which inhibits 50% of the enzymatic activity, was calculated. Compounds in the examples were tested a minimum of three times.
As to `NCc1cc(-c2cc(COc3cc(C(F)(F)F)ccc3CC(=O)O)cc3ccoc23)ccn1` [Compound 57b, 2-(2-((7-(2-(aminomethyl)pyridin-4-yl)benzofuran-5-yl)methoxy)-4-(trifluoromethyl)phenyl)acetic acid], the IC50 was < 1000 nM.
Next, `COc1c(COc2ccccc2CC(=O)O)cc(-c2cccc(CN)c2)c2occc12` [Compound 67f, 2-(2-((7-(3-(aminomethyl)phenyl)-4-methoxybenzofuran-5-yl)methoxy)phenyl)acetic acid]: < 1000 nM; `CC(C)Oc1c(COc2ccccc2CC(=O)O)cc(-c2cccc(CN)c2)c2occc12` [Compound 66f, 2-(2-((7-(3-(aminomethyl)phenyl)-4-isopropoxybenzofuran-5-yl)methoxy)phenyl)acetic acid]: < 1000 nM; `NCc1cccc(-c2cc(COc3ccccc3CC(=O)O)c(OCC(=O)O)c3ccoc23)c1` [Compound 65g, lithium 2-((7-(3-(aminomethyl)phenyl)-5-((2-(carboxymethyl)phenoxy)methyl)benzofuran-4-yl)oxy)acetate]: < 1000 nM.
Take `CS(=O)(=O)NCc1ccc(CC(=O)O)c(OCc2cc(-c3cccc(CN)c3)c3occc3c2)c1` [Compound 33c, 2-(2-((7-(3-(aminomethyl)phenyl)benzofuran-5-yl)methoxy)-4-(methylsulfonamidomethyl)phenyl)acetic acid]: the IC50 was < 1000 nM.
As for `O=CNCc1nccc(-c2cc(COc3ccccc3CC(=O)O)cc3ccoc23)c1F` [Compound 36f, 2-(2-((7-(3-fluoro-2-(formamidomethyl)pyridin-4-yl)benzofuran-5-yl)methoxy)phenyl)acetic acid], the concentration for half-maximal inhibition (IC50) is < 1000 nM.
`COCc1cc2cc(COc3cc(C(C)=O)ccc3CC(=O)O)cc(-c3cccc(CN)c3)c2o1` [Compound 12j, 2-(4-acetyl-2-((7-(3-(aminomethyl)phenyl)-2-(methoxymethyl)benzofuran-5-yl)methoxy)phenyl)acetic acid]: the IC50 was < 1000 nM.
The same measure for `NCc1ccc(-c2nc(C(=O)Nc3ccccc3CC(=O)O)c3cccn3n2)cc1` [Compound 82g, 2-(2-(2-(4-(aminomethyl)phenyl)pyrrolo[2,1-f][1,2,4]triazine-4-carboxamido)phenyl)acetic acid]: > 10000 nM; for `Cc1ccc(CC(=O)O)c(OCc2cc(-c3cccc(CN)c3)c3occ(F)c3c2)c1` [Compound 49d, 2-(2-((7-(3-(aminomethyl)phenyl)-3-fluorobenzofuran-5-yl)methoxy)-4-methylphenyl)acetic acid]: < 1000 nM; for `CC(Oc1ccccc1CC(=O)O)c1cc(-c2cccc(CN)c2)c2occc2c1` (single isomer, unassigned; (-)) [Compound 77g, (−)-2-(2-(1-(7-(3-(aminomethyl)phenyl)benzofuran-5-yl)ethoxy)phenyl)acetic acid]: < 1000 nM.
With `CC(=O)c1ccc(CC(=O)O)c(OCc2cc(-c3ccnc(CN)c3)c3oc(F)cc3c2)c1` [Compound 74d, 2-(4-acetyl-2-((7-(2-(aminomethyl)pyridin-4-yl)-2-fluorobenzofuran-5-yl)methoxy)phenyl)acetic acid], the IC50 is < 1000 nM.
In the case of `NCc1cccc(-c2cc(COc3ccc(F)cc3CC(=O)O)cc3cc(F)oc23)c1F` [Compound 18c, 2-(2-((7-(3-(aminomethyl)-2-fluorophenyl)-2-fluorobenzofuran-5-yl)methoxy)-5-fluorophenyl)acetic acid], the IC50 was < 1000 nM.
Next, `NCc1cc(-c2cc(COc3ccccc3CC(=O)O)cc3ccoc23)c[nH]1` [Compound 8g, 2-(2-((7-(5-(aminomethyl)-1H-pyrrol-3-yl)benzofuran-5-yl)methoxy)phenyl)acetic acid]: 1000 to 10000 nM.
Next, `NCc1cccc(-c2cc(COc3ccccc3)cc3ccoc23)c1` [Compound 83b, (3-(5-(phenoxymethyl)benzofuran-7-yl)phenyl)methanamine]: > 10000 nM; `CC(C)C(N)c1cccc(-c2cc(COc3ccccc3CC(=O)O)cc3ccoc23)c1` (stereo not shown) [Compound 3c, 2-(2-((7-(3-(1-amino-2-methylpropyl)phenyl)benzofuran-5-yl)methoxy)phenyl)acetic acid]: 1000 to 10000 nM; `CCNCc1nccc(-c2cc(COc3ccccc3CC(=O)O)cc3ccoc23)c1F` [Compound 37d, 2-(2-((7-(2-((ethylamino)methyl)-3-fluoropyridin-4-yl)benzofuran-5-yl)methoxy)phenyl)acetic acid]: < 1000 nM.
`NCc1cccc(-c2cc(COc3ccccc3C(NC(=O)C3CC3)C(=O)O)cc3ccoc23)c1` (single isomer, unassigned; (+)) [Compound 52f, (+)-2-(2-((7-(3-(aminomethyl)phenyl)benzofuran-5-yl)methoxy)phenyl)-2-(cyclopropanecarboxamido)acetic acid]: the IC50 is < 1000 nM.
As to `NCc1cccc(-c2cc(COc3ccc(F)cc3CC(=O)O)cc3cc(F)oc23)c1` [Compound 16f, 2-(2-((7-(3-(aminomethyl)phenyl)-2-fluorobenzofuran-5-yl)methoxy)-5-fluorophenyl)acetic acid], the IC50 is < 1000 nM.
Next, `NCc1cccc(-c2cc(COc3ccccc3C(NC(=O)C3CC3)C(=O)O)cc3ccoc23)c1` (single isomer, unassigned; (-)) [Compound 51f, (−)-2-(2-((7-(3-(aminomethyl)phenyl)benzofuran-5-yl)methoxy)phenyl)-2-(cyclopropanecarboxamido)acetic acid]: < 1000 nM; `CCOC(=O)NC(C)c1ccc(CC(=O)O)c(OCc2cc(-c3cccc(CN)c3)c3occc3c2)c1` (single isomer, unassigned; (-)) [Compound 55e, (−)-2-(2-((7-(3-(aminomethyl)phenyl)benzofuran-5-yl)methoxy)-4-(1-((ethoxycarbonyl)amino)ethyl)phenyl)acetic acid]: < 1000 nM; `CC(=O)c1ccc(CC(=O)O)c(OCc2cc(-c3cccc(CN)c3F)c3oc(F)cc3c2)c1` [Compound 76e, 2-(4-acetyl-2-((7-(3-(aminomethyl)-2-fluorophenyl)-2-fluorobenzofuran-5-yl)methoxy)phenyl)acetic acid]: < 1000 nM.
Take `COCOc1c(COc2ccccc2CC(=O)O)cc(-c2cccc(CN)c2)c2occc12` [Compound 81h, 2-(2-((7-(3-(aminomethyl)phenyl)-4-(methoxymethoxy)benzofuran-5-yl)methoxy)phenyl)acetic acid]: the IC50 is < 1000 nM.
For `CC(N)c1ccc(CC(=O)O)c(OCc2cc(-c3cccc(CN)c3)c3occc3c2)c1` (single isomer, unassigned; (-)) [Compound 61a, (−)-2-(4-(1-aminoethyl)-2-((7-(3-(aminomethyl)phenyl)benzofuran-5-yl)methoxy)phenyl)acetic acid], the IC50 was < 1000 nM.
Next, `COc1ccc(CC(=O)O)c(OCc2cc(-c3cccc(C(N)CF)c3)c3occc3c2)c1` (single isomer, unassigned; (+)) [Compound 14k, (+)-2-(2-((7-(3-(1-amino-2-fluoroethyl)phenyl)benzofuran-5-yl)methoxy)-4-methoxyphenyl)acetic acid]: < 1000 nM; `CC(C)C(=O)Nc1ccc(CC(=O)O)c(OCc2cc(-c3cccc(CN)c3)c3occc3c2)c1` [Compound 70f]: < 1000 nM.

Usually IC50 stands for the midpoint of a concentration-inhibition curve.
